In paper PMC12736120, “First-in-Human Phase I Clinical Trial of SLC-391, a Novel and Selective AXL Inhibitor, in Patients with Advanced Solid Tumours” (Pharmaceuticals, 2025):
Like-named read-outs stand apart in the source and are kept apart here.

Assay: Plasma pharmacokinetics, QD and BID cohorts (non-compartmental)
Format: in vivo, human
Settings: for Tmax / AUC / AUC(0-t) / Cmax / concentration at 21 days: human, plasma, oral; for concentration at 21 days: read-out: Cmin, range across cohorts
Protocol: PK parameters were calculated by standard non-compartmental methods for SLC-391. Due to the long half-life of SLC-391 compared to the dosing interval, it was not possible to calculate a number of PK parameters, including plasma half-life and rate of elimination. Accumulation was assessed from the mean accumulation ratio factor (AR factor) calculated as the repeated dose (C1D21) mean value/single dose (C1D1) mean value for the PK parameters Cmax, AUC0–12, and AUC0–last for each dose group.
During QD dosing, blood samples for determination of SLC-391 plasma concentrations were collected predose and at 0.5, 1, 2, 3, 4, 6, 8, and 24 h after SLC-391 administration on cycle 1 day 1 (C1D1) and cycle 1 day 21 (C1D21). During BID dosing, blood samples were collected predose and at 1, 2, 3, 4, 6, 8, and 12 h after the first daily dose (before the second daily dose). Where possible, further samples were then collected at 13, 14, 22, and 24 h after the initial dose (predose C1D2). Blood samples were also collected on C1D21 (steady state) predose and at 1, 2, 3, 4, 6, 8, and 12 h after the first daily dose (before the second daily dose). Where possible, further samples were then collected at 13, 14, 22, and 24 h after the initial C1D21 dose (predose C2D1). An additional blood sample was also taken, where possible, at the end of treatment (EOT) visit.
After collection, blood samples were centrifuged, and plasma was separated and stored at −80 °C. Plasma concentrations of SLC-391 were measured by a validated analytical method involving liquid–liquid extraction followed by high-performance liquid chromatography (HPLC)–mass/mass spectroscopy assay using a Water Quattro Premier tandem quadrupole mass spectroscopy with Waters MassLynx data acquisition and processing software. Plasma analysis was carried out by Microconstants (San Diego, CA, USA) in compliance with the US FDA GLP regulations. The calibration range of the assay was from 0.100 to 100 ng/mL. Quality control samples prepared at 4 different analyte concentrations were analysed with each batch of samples against a separately prepared calibration standard. PK parameters were collected following single (day 1) and repeat dose (day 21) administration. PK parameters were summarised with appropriate descriptive statistics where possible (e.g., mean, geometric mean, median, maximum, minimum, and coefficient of variation). Descriptive PK parameters were determined by standard non-compartmental methods based on the concentration–time data of each subject. The nominal time was used for descriptive statistics calculations, and the actual sample collection times were used in PK analyses. PK analyses were performed using validated Phoenix WinNonlin Professional 8.3 (Certara, L.P., St. Louis, MO, USA).

Structure (SMILES): Nc1ncc(-c2cnn(C3CCNCC3)c2)cc1-c1nnc(CC2CC2)o1 [SLC-391, 3-(5-[cyclopropylmethyl]-1,3,4-oxadiazol-2-yl)-5-(1-[piperidin-4-yl]-1H-pyrazol-4-yl)-pyridin-2-amine]
- Tmax (150 mg, QD, C1D1, read-out: Tmax, Median): 2.1 h
- AUC (150 mg, QD, C1D21, read-out: AUC0–12, Mean): 2140 ng·h/mL
- AUC (150 mg, QD, C1D21, read-out: AUC0–12, Median): 2080 ng·h/mL
- AUC(0-t) (150 mg, QD, C1D21, read-out: AUC0–last, Mean): 3620 ng·h/mL
- AUC(0-t) (150 mg, QD, C1D21, read-out: AUC0–last, Median): 3510 ng·h/mL
- Cmax (150 mg, QD, C1D21, read-out: Cmax, Mean): 254 ng/mL
- Cmax (150 mg, QD, C1D21, read-out: Cmax, Median): 269 ng/mL
- Tmax (150 mg, QD, C1D21, read-out: Tmax, Mean): 2.6 h
- Tmax (150 mg, QD, C1D21, read-out: Tmax, Median): 2 h
- AUC (175 mg, QD, C1D1, n 1, read-out: AUC0–12, Mean): 1500 ng·h/mL
- AUC (175 mg, QD, C1D1, n 1, read-out: AUC0–12, Median): 1500 ng·h/mL
- AUC(0-t) (175 mg, QD, C1D1, read-out: AUC0–last, Mean): 1580 ng·h/mL
- AUC(0-t) (175 mg, QD, C1D1, read-out: AUC0–last, Median): 1580 ng·h/mL
- Cmax (175 mg, QD, C1D1, read-out: Cmax, Mean): 357 ng/mL
- Cmax (175 mg, QD, C1D1, read-out: Cmax, Median): 357 ng/mL
- Tmax (175 mg, QD, C1D1, read-out: Tmax, Mean): 2 h
- Tmax (175 mg, QD, C1D1, read-out: Tmax, Median): 2 h
- AUC (200 mg, 200 mg BID, C1D1, mean, n=3, plasma, read-out: AUC0–12): 985 ng·h/mL
- AUC(0-t) (200 mg, 200 mg BID, C1D1, mean, n=3, plasma, read-out: AUC0–last): 2050 ng·h/mL
- Cmax (200 mg, 200 mg BID, C1D1, mean, n=3, plasma, read-out: Cmax): 174 ng/mL
- Tmax (200 mg, 200 mg BID, C1D1, mean, n=3, plasma, read-out: Tmax): 9.7 h
- AUC (200 mg, 200 mg BID, C1D1, median, n=3, plasma, read-out: AUC0–12): 1130 ng·h/mL
- AUC(0-t) (200 mg, 200 mg BID, C1D1, median, n=3, plasma, read-out: AUC0–last): 2170 ng·h/mL
- Cmax (200 mg, 200 mg BID, C1D1, median, n=3, plasma, read-out: Cmax): 178 ng/mL
- Tmax (200 mg, 200 mg BID, C1D1, median, n=3, plasma, read-out: Tmax): 3.1 h
- AUC (200 mg, 200 mg BID, C1D21, mean, n=2, plasma, read-out: AUC0–12): 8550 ng·h/mL
- AUC(0-t) (200 mg, 200 mg BID, C1D21, mean, n=2, plasma, read-out: AUC0–last): 16400 ng·h/mL
- Cmax (200 mg, 200 mg BID, C1D21, mean, n=2, plasma, read-out: Cmax): 874 ng/mL
- Tmax (200 mg, 200 mg BID, C1D21, mean, n=2, plasma, read-out: Tmax): 2.4 h
- AUC (200 mg, 200 mg BID, C1D21, median, n=2, plasma, read-out: AUC0–12): 8550 ng·h/mL
- AUC(0-t) (200 mg, 200 mg BID, C1D21, median, n=2, plasma, read-out: AUC0–last): 16400 ng·h/mL
- Cmax (200 mg, 200 mg BID, C1D21, median, n=2, plasma, read-out: Cmax): 874 ng/mL
- Tmax (200 mg, 200 mg BID, C1D21, median, n=2, plasma, read-out: Tmax): 2.4 h
- AUC(0-t) (BID, 75 mg to 200 mg, C1D1, read-out: mean AUC0–last, range across cohorts): 1170 to 2330 ng·h/mL
- Cmax (BID, 75 mg to 200 mg, C1D1, read-out: mean Cmax, range across cohorts): 95.2 to 236 ng/mL
- Tmax (BID, 75 mg to 200 mg, C1D1, read-out: median Tmax, range across cohorts): 2 to 3.1 h
- AUC(0-t) (BID, 75 mg to 200 mg, C1D21, read-out: mean AUC0–last, range across cohorts): 4280 to 16400 ng·h/mL
- Cmax (BID, 75 mg to 200 mg, C1D21, read-out: mean Cmax, range across cohorts): 249 to 874 ng/mL
- Tmax (BID, 75 mg to 200 mg, C1D21, read-out: median Tmax, range across cohorts): 1.9 to 2.9 h
- AUC(0-t) (QD, 25 mg to 150 mg, C1D21, read-out: mean AUC0–last, range across cohorts): 461 to 3620 ng·h/mL
- Cmax (QD, 25 mg to 150 mg, C1D21, read-out: mean Cmax, range across cohorts): 41.9 to 436 ng/mL
- Tmax (QD, 25 mg to 150 mg, C1D21, read-out: median Tmax, range across cohorts): 1.5 to 2.1 h
- AUC(0-t) (QD, 25 mg to 175 mg, C1D1, read-out: mean AUC0–last, range across cohorts): 270 to 1580 ng·h/mL
- Cmax (QD, 25 mg to 175 mg, C1D1, read-out: mean Cmax, range across cohorts): 32.5 to 357 ng/mL
- Tmax (QD, 25 mg to 175 mg, C1D1, read-out: median Tmax, range across cohorts): 0.9 to 2.1 h
- concentration at 21 days (after 21 days of BID dosing): 146 to 472 ng/mL
- concentration at 21 days (after 21 days of QD dosing): 10.3 to 152 ng/mL
- Tmax (overall, as stated in the abstract, read-out: median Tmax): 2 h
- steady state of plasma concentrations (multiple doses, QD and BID): appeared to reach a steady state by day 21
